Results as given in US8575091B1, “Amylin analogues and pharmaceutical compositions thereof” (Novo Nordisk A/S, priority 2012, dated 2013).
pEC50, pIC50: −log10 of the molar value. Numbered stars: 1 amine (or outer) side, 2 acyl side, 3 side chain; on linkers, the order of the positions; unused ones are H or OH. Bridge positions count the residues as written; N and C are the ends. Side chains are listed from the residue outwards. Peptide text beside a SMILES is read from it. * marks the point of attachment. C20 diacid = O=C(O)CCCCCCCCCCCCCCCCCCC(=O)*; γGlu = O=C(O)[C@H](CCC(=O)[*:2])N[*:1]; AEEA = NCCOCCOCC(=O)O

Experiments:
[1] = target: T1, human amylin receptor (amylin 3(a) receptor: human calcitonin receptor + RAMP-3) (Homo sapiens, UniProt O60896+P30988); experiment: Assay (II)a functional assay, human amylin receptor (CRE luciferase, BHK cells); assay type: cell-based; conditions: for pEC50: functional assay, human amylin receptor, read-out: hAmylin-R funct. EC50
T1 construct: expressed in transfected cells
T1 sequence (P30988 25-474): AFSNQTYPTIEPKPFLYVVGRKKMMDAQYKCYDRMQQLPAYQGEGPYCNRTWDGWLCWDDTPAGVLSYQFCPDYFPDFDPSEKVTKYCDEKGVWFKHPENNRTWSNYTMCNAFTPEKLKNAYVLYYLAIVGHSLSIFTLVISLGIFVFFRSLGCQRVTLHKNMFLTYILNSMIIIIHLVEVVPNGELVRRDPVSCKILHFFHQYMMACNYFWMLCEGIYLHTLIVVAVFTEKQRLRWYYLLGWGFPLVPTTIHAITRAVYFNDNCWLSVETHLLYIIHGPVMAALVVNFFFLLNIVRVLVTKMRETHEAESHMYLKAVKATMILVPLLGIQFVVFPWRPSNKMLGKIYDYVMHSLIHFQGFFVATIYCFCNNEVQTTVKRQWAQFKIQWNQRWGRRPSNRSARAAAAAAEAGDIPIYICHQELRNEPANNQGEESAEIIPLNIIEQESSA
T1 sequence (O60896 24-148 partner): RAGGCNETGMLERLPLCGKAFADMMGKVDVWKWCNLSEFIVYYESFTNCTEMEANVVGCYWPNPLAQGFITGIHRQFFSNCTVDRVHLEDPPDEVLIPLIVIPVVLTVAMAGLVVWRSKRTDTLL

[2] = target: T2, human calcitonin receptor (Homo sapiens, UniProt P30988); experiment: Assay (II)a functional assay, human calcitonin receptor (CRE luciferase, BHK cells);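 note: luminescence from a CRE-driven luciferase reporter, read by single photon counting after cells were exposed to test samples for 3 h at 37 °C under 5% CO2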; assay type: cell-based; conditions: read-out: hCTR funct. EC50
T2 construct: expressed in transfected cells
T2 sequence (P30988 25-474): T1 sequence (P30988 25-474)

human amylin receptor = target: T3, human amylin receptor (Homo sapiens, UniProt O60896+P30988); experiment: Assay (V) binding to the human amylin receptor (SPA, 125I-rat amylin); conditions: human amylin receptor membranes, SPA; read-out: hAmylin-R bind IC50
T3 construct: expressed in transfected cells
T3 sequence (P30988 25-474): T1 sequence (P30988 25-474)
T3 sequence (O60896 24-148 partner): T1 sequence (O60896 24-148 partner)
In short: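 IC50, taken as receptor affinity, came from one-site binding competition analysis of scintillation proximity counts. Amylin 3(a)/CRE-luc cell membranes (35 ng/μL final) were mixed with SPA beads (0.05 mg/well) in 50 mM Hepes pH 7.4 containing CaCl2, MgCl2, 0.1% OA and 0.02% Tween20.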

[3] = target: T2, human calcitonin receptor; experiment: Assay (VII) binding to the human calcitonin receptor (SPA, 125I-Calcitonin); conditions: read-out: hCTR bind IC50;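 note: cell membranes coupled to SPA beads, competitive displacement read by scintillation counting, IC50 derived from a one-site competition fit as a measure of receptor affinity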

pEC50 [1]	pEC50 [2]	pIC50 (human amylin receptor)	pIC50 [3]	Ratio hCT/hAmylin funct. ([1]; Table 6, human functional selectivity (hCTR EC50 / hAmylin-R EC50))	Ratio hCT/hAmylin funct. ([1]; Table 6a, human functional selectivity (hCTR EC50 / hAmylin-R EC50), at least 5)	Ratio hCT/hAmylin funct. ([1]; Table 6j, hCTR funct. EC50 / hAmylin-R funct. EC50)	Ratio hCT/hAmylin funct. ([1]; Table 6k, hCTR funct. EC50 / hAmylin-R funct. EC50)	Compound
10.43	8.29	9.08	6.89	–	–	–	–	CC[C@H](C)[C@H](NC(=O)[C@H](C)NC(=O)CNC(=O)[C@H](Cc1ccccc1)NC(=O)[C@H](CC(N)=O)NC(=O)[C@@H]1CCCN1C(=O)[C@H](CO)NC(=O)[C@H](CO)NC(=O)[C@H](Cc1c[nH]cn1)NC(=O)[C@H](CCCNC(=N)N)NC(=O)[C@H](CC(C)C)NC(=O)[C@H](Cc1ccccc1)NC(=O)[C@H](CCCNC(=N)N)NC(=O)[C@H](C)NC(=O)[C@H](CC(C)C)NC(=O)[C@H](CCCNC(=N)N)NC(=O)[C@H](CCC(N)=O)NC(=O)[C@@H](NC(=O)[C@H](C)NC(=O)[C@@H]1CSSC[C@H](NC(=O)[C@@H](N)CCCCNC(=O)CC[C@H](NC(=O)CCCCCCCCCCCCCCCCCCC(=O)O)C(=O)O)C(=O)N[C@@H](CC(N)=O)C(=O)N[C@@H]([C@@H](C)O)C(=O)N[C@@H](C)C(=O)N[C@@H]([C@@H](C)O)C(=O)N1)[C@@H](C)O)C(=O)N1CCC[C@H]1C(=O)N[C@@H](CO)C(=O)N[C@@H](CO)C(=O)N[C@H](C(=O)N1CCC[C@H]1C(=O)N[C@H](C(=O)NCC(=O)N[C@@H](CO)C(=O)N[C@@H](CC(N)=O)C(=O)N[C@H](C(=O)N[C@@H](Cc1ccc(O)cc1)C(N)=O)[C@@H](C)O)C(C)C)[C@@H](C)O [Example 63] (H-K([γGlu-C20 diacid])CNTATCATQRLARFLRHSSPNFGAIPSSTPVGSNTY-NH2; disulfide 2-7)
9.23	8.00	9.26	7.83	17.0	17.0	17.0	17.0	CC[C@H](C)[C@H](NC(=O)[C@H](C)NC(=O)CNC(=O)[C@H](Cc1ccccc1)NC(=O)[C@H](CC(N)=O)NC(=O)[C@@H]1CCCN1C(=O)[C@H](CO)NC(=O)[C@H](CO)NC(=O)[C@H](Cc1c[nH]cn1)NC(=O)[C@H](CCCNC(=N)N)NC(=O)[C@H](CC(C)C)NC(=O)[C@H](Cc1ccccc1)NC(=O)[C@H](CC(N)=O)NC(=O)[C@H](C)NC(=O)[C@H](CC(C)C)NC(=O)[C@H](CCCNC(=N)N)NC(=O)[C@H](CCC(N)=O)NC(=O)[C@@H](NC(=O)[C@H](C)NC(=O)[C@@H]1CSSC[C@H](NC(=O)[C@H](CCCNC(=N)N)NC(=O)[C@@H](N)CCCCNC(=O)COCCOCCNC(=O)CC[C@H](NC(=O)CCCCCCCCCCCCCCCCCCC(=O)O)C(=O)O)C(=O)N[C@@H](CC(N)=O)C(=O)N[C@@H]([C@@H](C)O)C(=O)N[C@@H](C)C(=O)N[C@@H]([C@@H](C)O)C(=O)N1)[C@@H](C)O)C(=O)N1CCC[C@H]1C(=O)N[C@@H](CO)C(=O)N[C@@H](CO)C(=O)N[C@H](C(=O)N[C@@H](CC(N)=O)C(=O)N[C@H](C(=O)NCC(=O)N[C@@H](CO)C(=O)N[C@@H](Cc1c[nH]cn1)C(=O)N[C@H](C(=O)N[C@@H](Cc1ccc(O)cc1)C(N)=O)[C@@H](C)O)C(C)C)[C@@H](C)O [Example 45] (H-K([AEEA-γGlu-C20 diacid])RCNTATCATQRLANFLRHSSPNFGAIPSSTNVGSHTY-NH2; disulfide 3-8)
9.42	7.00	9.44	6.95	–	–	–	–	CC[C@H](C)[C@H](NC(=O)[C@H](C)NC(=O)CNC(=O)[C@H](Cc1ccccc1)NC(=O)[C@H](CC(N)=O)NC(=O)[C@@H]1CCCN1C(=O)[C@H](CO)NC(=O)[C@H](CO)NC(=O)[C@H](Cc1c[nH]cn1)NC(=O)[C@H](CCCNC(=N)N)NC(=O)[C@H](CC(C)C)NC(=O)[C@H](Cc1ccccc1)NC(=O)[C@@H](CC(=O)O)NC(=O)[C@H](C)NC(=O)[C@H](CC(C)C)NC(=O)[C@H](CCCNC(=N)N)NC(=O)[C@H](CCC(N)=O)NC(=O)[C@@H](NC(=O)[C@H](C)NC(=O)[C@@H]1CSSC[C@H](NC(=O)[C@@H](N)CCCCNC(=O)CC[C@H](NC(=O)CC[C@H](NC(=O)CCCCCCCCCCCCCCCCCCC(=O)O)C(=O)O)C(=O)O)C(=O)N[C@@H](CC(N)=O)C(=O)N[C@@H]([C@@H](C)O)C(=O)N[C@@H](C)C(=O)N[C@@H]([C@@H](C)O)C(=O)N1)[C@@H](C)O)C(=O)N1CCC[C@H]1C(=O)N[C@@H](CO)C(=O)N[C@@H](CO)C(=O)N[C@H](C(=O)N[C@@H](CC(N)=O)C(=O)N[C@H](C(=O)NCC(=O)N[C@@H](CO)C(=O)N[C@@H](CCCNC(=N)N)C(=O)N[C@H](C(=O)N[C@@H](Cc1ccc(O)cc1)C(N)=O)[C@@H](C)O)C(C)C)[C@@H](C)O [Example 131]
